Source: patent US10865203B2, “Ligands selective to alpha 6 subunit-containing GABAA receptors and their methods of use” (UWM Research Foundation, Inc., priority 2015, dated 2020)
Entries after “also recorded” stand apart in the source; their conditions may differ.

Legend:
[1] = tested on: binary αxβ3 (x=1, 2, 3, 5) receptors; experiment: Electrophysiology in Xenopus oocytes, binary receptors; type: cell-based, rat
Protocol: Mature female Xenopus laevis (Nasco, Fort Atkinson, Wis., USA) were anaesthetized in a bath of ice-cold 0.17% Tricain (Ethyl-m-aminobenzoat, Sigma-Aldrich, St. Louis, Mo., USA) before decapitation and transfer of the frog's ovary to ND96 medium (96 mM NaCl, 2 mM KCl, 1 mM MgCl2, 5 mM HEPES; pH 7.5). Following incubation in 1 mg/mL collagenase (Sigma-Aldrich, St. Louis, Mo., USA) for 30 min, stage 5 to 6 oocytes were singled out of the ovary and defolliculated using a platinum wire loop. Oocytes were stored and incubated at 18° C. in NDE medium (96 mM NaCl, 2 mM KCl, 1 mM MgCl2, 5 mM HEPES, 1.8 mM CaCl2; pH 7.5) that was supplemented with 100 U per mL-1 penicillin, 100 μg per mL-1 streptomycin and 2.5 mM pyruvate. Oocytes were injected with an aqueous solution of mRNA. A total of 2.5 ng of mRNA per oocyte was injected. Subunit ratio was 1:1:5 for αxβγ2 (x=1, 2, 3, 5) and 3:1:5 for α4/6β3γ2 and αβδ receptors. Injected oocytes were incubated for at least 36 h before electrophysiological recordings. Oocytes were placed on a nylon-grid in a bath of NDE medium. For current measurements, the oocytes were impaled with two microelectrodes (2-3MΩ), which were filled with 2 M KCl. The oocytes were constantly washed by a flow of 6 mL per min-1 NDE that could be switched to NDE containing GABA and/or drugs. Drugs were diluted into NDE from DMSO solutions resulting in a final concentration of 0.1% DMSO. Maximum currents measured in mRNA injected oocytes were in the microampere range for all receptor subtypes. […] Data were digitized using a Digidata 1322A or 1550 data acquisition system (Axon Instruments, Union City, Calif., USA), recorded using Clampex 10.5 software (Molecular Devices, Sunnyvale, Calif., USA), and analyzed using Clampfit 10.5 and GraphPad Prism 6.0 (La Jolla, Calif., USA) software. […]
For selected test compounds full dose response curves were recorded in α1-6β3γ2 receptors. […]

[2] = tested on: METH-impaired PPI in C57/B6 mice; experiment: PPI test, methamphetamine-impaired prepulse inhibition; type: in vivo, mouse; settings: for rescue of METH-impaired PPI: mice, compound 10 mg/kg i.p. 15 min before METH 2 mg/kg i.p.
Protocol: All animal experiments conducted at NTU were approved by the Institutional Animal Care and Use Committee of College of Medicine, National Taiwan University. C57/B6 (8-10 weeks) mice were used for the PPI test and Wistar rats (8-9 weeks) were used in the migraine model. Animals were housed in an animal room with a 12-h light/12-h dark cycle and free access to food and water.
The PPI test was conducted with a PPI apparatus (SR-LAB, San Diego Instruments, San Diego, Calif.) consisting of a startle chamber equipped with various programming acoustic stimulations. After acclimation, the mouse was gently placed in the startle chamber for a 4 min acclimation period with a background noise of 65 dB, which continued throughout the whole PPI test session. One PPI test session consisted of 4 types of startle trials, including the trial with the startle pulse (115 dB) alone (PULSEALONE; 115 dB, 20 ms), two trials with the startle pulse paired with 71 and 77 dB prepulses, respectively (PREPULSE+PULSE; 71 dB+115 dB and 77 dB+115 dB), and the trial without stimulus (NOSTIM; background 65 dB only). A test session started and ended, respectively, with four NOSTIM trials and four PULSEALONE trials. In between, each of the four types of trials was presented 14 times randomly, that is, 56 trials were given in a test session. The intertrial interval was given randomly from 5 to 20 s. In the PREPULSE+PULSE trial, a 71 or 77 dB prepulse was given 120 ms before the 115 dBpulse. The magnitude of PPI (PPI %) was determined, after summarizing the startle responses in PULSEALONE and PREPULSE+PULSE trials, according to the equation (PULSEALON−PREPULSE+PULSE)/PULSEALONE×100%. The tested compound or vehicle was given to the animal for 15 min, followed by methamphetamine (2 mg/kg). The PPI test was conducted 10 min after injection of methamphetamine. Data were expressed as the mean±S.E.M. Statistical comparisons among groups were analyzed by ANOVA with Tukey post hoc test, and differences between groups were analyzed by Student's t-test. Two-way ANOVA with Bonferroni's post hoc test was used to analyze differences in the time courses of locomotor activity among groups. Differences were considered significant if P<0.05.
Methamphetamine and apomorphine were dissolved in normal saline for i.p. And s.c. Injections, respectively. Tested compounds and haloperidol, when given by i.p. Injection, were dissolved in a vehicle containing 20% dmso, 20% Cremophor® el (polyoxyethylene castor, sigma-aldrich) and 60% normal saline. Furosemide was dissolved (20 nmole/μL) in dimethylsulfoxide for intra-cerebellar microinjection the i.p. or s.c. Injection volume was 10 mL/kg.

With `COc1ccc(-n2nc3c4ccc(OC)cc4[nH]cc-3c2=O)cc1` [Compound 6, 7-Methoxy-2-(4-methoxyphenyl)-2,5-dihydro-3H-pyrazolo[4,3-c]quinolin-3-one] as the compound, how does the “efficacy in binary αxβ3 receptors” value [1] read?
Its value is “low efficacy”.

And the “effect of intra-cerebellar furosemide on the rescue of PPI” value ([2]; furosemide 10 nmol intra-cerebellar microinjection)?
The value was “prevented”.

And the “rescue of METH-impaired PPI” value [2]?
Its value is “effectively rescued”.

What about the “rescue of METH-impaired PPI” value ([2]; listed as C6) of the same compound?
The value was “significantly rescued”.

And the “rescue of METH-impaired PPI” value ([2]; listed as compound 6)?
The value was “effective; also recorded: significantly rescued”.

For `[2H]C([2H])([2H])Oc1ccc(-n2nc3c4ccc(OC)cc4[nH]cc-3c2=O)cc1` [DK-I-56-1, 7-Methoxy-2-(4-methoxy-d3-phenyl)-2,5-dihydro-3H-pyrazolo[4,3-c]quinolin-3-one], which “rescue of METH-impaired PPI” value [2] is on record?
The value was “effective”.

What does the source list for `COc1cccc(-n2nc3c4cc(Cl)ccc4[nH]cc-3c2=O)c1` [LAU 159, 8-Chloro-2-(3-methoxyphenyl)-2,5-dihydro-3H-pyrazolo[4,3-c]quinolin-3-one]?
efficacy in binary αxβ3 receptors [1]: low efficacy; rescue of METH-impaired PPI [2]: effective; also recorded: comparable rescue effect as Compound 6

How did the “efficacy in binary αxβ3 receptors” value [1] turn out when `COc1ccc(-n2nc3c4ccc(Br)cc4[nH]cc-3c2=O)cc1` [LAU 463, 7-Bromo-2-(4-methoxyphenyl)-2,5-dihydro-3H-pyrazolo[4,3-c]quinolin-3-one] was run?
Its value is “low efficacy”.

And the “rescue of METH-impaired PPI” value [2]?
Its value is “effective; also recorded: comparable rescue effect as Compound 6”.
